The subject of one assay is TGF-β. The assay can be described thus: AlphaScreen SureFire p-SMAD3 (Ser423/425) assay, TGF-β-stimulated cells. It counts as cell-based. To be noted: Mus musculus; p-SMAD3 (Ser423/425) AlphaScreen in cell lysate; MPC-11; TGF-β stimulation; read-out: TGF-β: inhibition of TGF-β signaling, TGF-β pSMAD (MPC-11). In short, it runs like this: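 The p-SMAD-3 (Ser423/425) SureFire assay measured phosphorylation of endogenous SMAD-3 in cell lysates. Cells were plated overnight in collagen-coated plates, exposed to three-fold serially diluted compounds for about 10 minutes, then stimulated with TGFβ. Lysates (5 μL) received acceptor bead mix for 2 hours, then donor beads for 1½ hours before AlphaScreen reading.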
A general note: Bead proximity is the source of the signal in Alpha formats.

The test system of the next assay is GDF8. Nature of the assay: AlphaScreen SureFire p-SMAD3 (Ser423/425) assay, GDF8-stimulated cells. It counts as cell-based. To be noted: Mus musculus, MPC-11; p-SMAD3 (Ser423/425) AlphaScreen in cell lysate; MPC11; GDF8 stimulation; read-out: GDF8: inhibition of GDF8 signaling, GDF pSMAD (MPC11). In short, it runs like this:
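A SureFire AlphaScreen assay measured phosphorylation of endogenous SMAD-3 at Ser423/425 in cell lysates. Cells were treated with three-fold serially diluted compounds in DMSO for about 10 minutes, then stimulated with GDF8. After medium removal, cells were lysed in 1× Lysis Buffer (about 25 μL) with gentle shaking for 5-10 minutes.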

From patent publication US10696693B2, “Fused imidazole derivatives as TGF-beta inhibitors” (Rigel Pharmaceuticals, Inc., priority 2014, dated 2020) come the findings set out here.

Regarding `Fc1ccc(-c2nc3n(c2-c2ccc4[nH]ncc4c2)CCC3)cc1Cl` [Compound 264, 5-(2-(3-chloro-4-fluoropheny)-6,7-dihydro-5H-pyrrolo[1,2-a]imidazol-3-yl)-1H-indazole], the IC50 is 0.1 to 1 µM in the assay with TGF-β and < 0.05 µM in the assay on GDF8.

Turning to `Fc1ccc(-c2nc3n(c2-c2ccc4ncsc4c2)CCC3)cc1Cl` [Compound 265, 6-(2-(3-chloro-4-fluoropheny)-6,7-dihydro-5H-pyrrolo[1,2-a]imidazol-3-yl)benzo[d]thiazole], the IC50 lay in the range of 0.1 to 1 µM in the assay on TGF-β and 0.05 to 0.1 µM with GDF8.

As to `Fc1ccc(-c2nc3n(c2-c2ccc4nccnc4c2)CCC3)cc1Cl` [Compound 266, 6-(2-(3-chloro-4-fluoropheny)-6,7-dihydro-5H-pyrrolo[1,2-a]imidazol-3-yl)quinoxaline], the IC50 in the assay with TGF-β lay within 0.1 to 1 µM; with GDF8, 0.05 to 0.1 µM.

As to `Fc1ccc(-c2nc3n(c2-c2ccc4ncccc4c2)CCC3)cc1Cl` [Compound 267, 6-(2-(3-chloro-4-fluoropheny)-6,7-dihydro-5H-pyrrolo[1,2-a]imidazol-3-yl)quinoline], the IC50 in the assay with TGF-β and in the assay on GDF8 was 0.1 to 1 µM throughout.

On to `Cc1cc(-c2nc3n(c2-c2ccc4[nH]ncc4c2)CCC3)c(F)cc1F` [Compound 268, 5-(2-(2,4-difluoro-5-methylphenyl)-6,7-dihydro-5H-pyrrolo[1,2-a]imidazol-3-yl)-1H-indazole], for which the IC50 in the assay with TGF-β is 0.05 to 0.1 µM; in the assay on GDF8 it was < 0.05 µM.

Regarding `Cc1cc(-c2nc3n(c2-c2ccc4ncsc4c2)CCC3)c(F)cc1F` [Compound 269, 6-(2-(2,4-difluoro-5-methylphenyl)-6,7-dihydro-5H-pyrrolo[1,2-a]imidaozl-3-yl)benzo[d]thiazole], the IC50 was 0.05 to 0.1 µM with TGF-β and < 0.05 µM with GDF8.

On to `Cc1cc(-c2nc3n(c2-c2ccc4nccnc4c2)CCC3)c(F)cc1F` [Compound 270, 6-(2-(2,4-difluoro-5-methylphenyl)-6,7-dihydro-5H-pyrrolo[1,2-a]imidazol-3-yl)quinoxaline], for which the results for the IC50 with TGF-β and in the assay on GDF8 were 0.05 to 0.1 µM and < 0.05 µM, respectively.

For `Cc1cc(-c2nc3n(c2-c2ccc4ncccc4c2)CCC3)c(F)cc1F` [Compound 271, 6-(2-(2,4-difluoro-5-methylphenyl)-6,7-dihydro-5H-pyrrolo[1,2-a]imidazol-3-yl)quinoline], the figures for the IC50 in the assay with TGF-β and with GDF8 were 0.1 to 1 µM and < 0.05 µM, respectively.

Turning to `Cc1cc(-c2nc3n(c2-c2ccc4[nH]ncc4c2)CCC3)cc(Cl)c1F` [Compound 272, 5-(2-(3-chloro-4-fluoro-5-methylphenyl)-6,7-dihydro-5H-pyrrolo[1,2-a]imidazol-3-yl)-1H-indazole], the IC50 in the assay with TGF-β and in the assay on GDF8 was > 1 µM each time.

Turning to `Cc1cc(-c2nc3n(c2-c2ccc4ncsc4c2)CCC3)cc(Cl)c1F` [Compound 273, 6-(2-(3-chloro-4-fluoro-5-methylpheny)-6,7-dihydro-5H-pyrrolo[1,2-a]imidazol-3-yl)benzo[d]thiazole], the IC50 with TGF-β and in the assay with GDF8 was > 1 µM throughout.

On to `Cc1cc(-c2nc3n(c2-c2ccc4nccnc4c2)CCC3)cc(Cl)c1F` [Compound 274, 6-(2-(3-chloro-4-fluoro-5-methylpheny)-6,7-dihydro-5H-pyrrolo[1,2-a]imidazol-3-yl)quinoxaline], for which the IC50 with TGF-β and in the assay on GDF8 was > 1 µM each time.

As to `Cc1cc(-c2nc3n(c2-c2ccc4ncccc4c2)CCC3)cc(Cl)c1F` [Compound 275, 6-(2-(3-chloro-4-fluoro-5-methylpheny)-6,7-dihydro-5H-pyrrolo[1,2-a]imidazol-3-yl)quinoline], the IC50 in the assay with TGF-β and in the assay with GDF8 was > 1 µM throughout.

Regarding `Cc1cc(-c2nc3n(c2-c2ccc4[nH]ncc4c2)CCC3)cc(C)c1F` [Compound 276, 5-(2-(4-fluoro-3,5-dimethylphenyl)-6,7-dihydro-5H-pyrrolo[1,2-a]imidazol-3-yl)-1H-indazole], the IC50 with TGF-β is > 1 µM; in the assay with GDF8, 0.1 to 1 µM.
